One may read the LD50 as the dose expected to kill half of the subjects tested. Low values mean greater toxicity, high ones lower toxicity.

The test system of data set [1] is bronchial secretion (mucoproduction). Description: Bronchosecretagogue activity (mucoproduction) in the rabbit. Format: in vivo, rabbit (male brown). Conditions: oral, relative activity, d,l-trans-sobrerol taken equal to 100. As for the experimental part:
Method of mucoproduction in the rabbit according to Scuri R. et al Boll. Chem. Farm.
Male brown rabbits weighing 2.8-3.5 kg are used. To said animals, by a surgical operation under anaesthesia, a T shaped tracheal cannula is applied, as described in the above bibliographic reference.
To the cannula, a container (a polypropylene 2 ml test tube) is applied for periodical collection of the bronchial secretion. The study of mucoproduction, started at the fourth day after the operation, is divided into two 4 hour periods for collecting and measuring the mucus, and precisely from 8:30 to 12:30 (I), and from 12:30 to 16:30 (II).
The activity of each drug is tested by administering the same by oesophageal way (os) at the beginning of the II period and by evaluating the percent increase of mucoproduction (weight of the mucus as collected) in the II period as compared with the I period.

The nature of data set [2]: Pharmacokinetics: plasma levels in the rat after oral administration (HPLC). Format: in vivo. Conditions: Wistar rats, fasted, 400 mg/kg oral single administration, 0.5-6 h. On the procedure: For this study, two groups of Wistar rats (170 280 g), fasting about 15 hours before treatment, are utilized. The animals were allowed to drink an aqueous 10% glucose solution. To the rats, the compound of formula I, by oral way (transoesophageal intubation) is administered at the dose of 400 mg/kg (a single administration) and at 0.5 h; 1 h; 1.5 h; 2 h; 3 h; 4 h; 6 h from administration, 5 rats/time are sacrificed. The blood, as collected into test tubes containing sodium heparin, is centrifuged and the plasma so obtained is utilized for quantitative analysis of the compound of formula (I) of the invention by means of high pressure liquid chromatography (HPLC) with an U.V. detector.

Data set [3] relates to bronchial mucus of bronchitic rabbits. Kind of data set: Fluidizing "in vivo" activity: viscosity of bronchial mucus of bronchitic rabbits. Also noted: species or system rabbit (male, bronchitic by sulphuric acid aerosol). Conditions: for Fluidizing "in vivo" activity of bronchial mucus: bronchitic rabbits, oral, relative activity, d,l-trans-sobrerol taken equal to 100. As for the experimental part:
The viscosity of the mucus as withdrawn is studied by using a Contraves RM16 microviscosimeter and it is recorded by a Rheomat 15 T-FC apparatus.

Another data set can be described thus: in vivo. Conditions: mouse, po. The source says:
Method of studying LD50 in the mouse after a single oral administration.
Thereafter, the animals are fed again (Morini MIL fodder for mice).

The test system of data set [4] is rectal temperature, dry yeast-induced fever. Description: Antipyretic activity in the rat (dry yeast fever). Format: in vivo, rat (albino Wistar female). Conditions: for Antipyretic activity: rat, oral, temperature index over 4-25 h, relative activity, p-aminophenol taken equal to 100. On the procedure: Method for studying the antipyretic activity in the rat.
Albino Wistar female rats, weighing 100-140g, are utilized. The animals having a rectal, basal temperature from 36° to 37° C. are selected.
The test substances are administered by oral way contemporaneously with the pyretic agent (dry yeast, suspended in water at the 20% concentration; volume administered 15 ml/kg subcutaneously) at groups of 5 animals per dose.
After 4,5,6,7 and 25 hours from the treatment, the rectal temperature of the animals is measured by an Ellab RM6 probe, connected to an Ellab mod. TE-3 thermometer.
The activity of the drugs is evaluated by utilizing a temperature index which is provided by the algebraic sum of the differences in the rectal temperature between the measure values at the various times and the basal value.

`CC1=CC[C@H](C(C)(C)O)C[C@H]1OC(=O)CCC(=O)Nc1ccc(O)cc1` (relative stereo) [CO/1499, 5-[3-N-[(4-hydroxyphenyl)carboxamido]-1-oxo-propxy]-α,α-4-trimethyl-3-cyclohexene-1-methanol] had a Bronchosecretagogue activity in data set [1] of 131. In addition, the “absorption (course of the plasmatic levels)” value in data set [2] is “quick and good absorption”. The “Fluidizing "in vivo" activity of bronchial mucus” value (shortened to “Fluidizing "in vivo" activity”) in data set [3] is 120. Further, the mucosecretolytic-fluidizing activity entry in data set [3] (statement in words, versus activity ascribed to the d,l-trans-sobrerol moiety) is “potency increase”. The compound further registered an LD50 at 336 h in “in vivo” of 2070 mg/kg. The compound further yielded an Antipyretic activity in data set [4] of 127. For the same compound, in data set [4] (statement in words), the “antipyretic activity compared with paracetamol or any drug of the same therapeutical class” value is “equivalent of a dose of either paracetamol or any drug of the same therapeutical class”.
In data set [1], `Nc1ccc(O)cc1` [p-aminophenol] had a Bronchosecretagogue activity of 0. In addition, in data set [3], the “Fluidizing "in vivo" activity” value stood at 0. In data set [4], this compound yielded an Antipyretic activity of 100.
`CC1=CC[C@H](C(C)(C)O)C[C@H]1O` (relative stereo) [d,l-trans-sobrerol] returned a Bronchosecretagogue activity in data set [1] of 100. Besides, the “Fluidizing "in vivo" activity” value in data set [3] stood at 100. Moreover, the median lethal dose (LD50) at 336 h in “in vivo” was 2340 mg/kg. Also, the Antipyretic activity in data set [4] came out at 0.

For the origin of these results see patent publication US4596824A, “p-Aminophenol with mucosecretolytic-fluidizing and antipyretic activity, a process for its preparation and pharmaceutical compositions thereof” (Camillo Corvi S.p.A., priority 1984, dated 1986).
